Patent publication US11590116B2 (THERAVANCE BIOPHARMA R&D IP, LLC, priority 2019, dated 2023)

Columns and labels:
[1] = tested on: TGF-β-stimulated SMAD3 phosphorylation in BEAS-2B cells; test: Cellular ALK5 potency assay, inhibition of TGF-β stimulated pSMAD3 formation in BEAS-2B cells; assay type: cell-based; settings: Homo sapiens; inhibition of TGF-β stimulated pSMAD3 formation, BEAS-2B cells; read-out: BEAS2B pIC50 (converted)
Method: The potency of compounds of the present disclosure for inhibition of TGF-β-stimulated SMAD3 phosphorylation was measured in BEAS-2B cells, a human lung epithelial cell line. TGF-β signals through activin receptor-like kinase 5 (ALK5) immediately prior to SMAD3 phosphorylation.
BEAS-2B cells were grown using 50% DMEM (Life Technologies) and 50% F-12 (Life Technologies) media, supplemented with 10% Fetal Bovine Serum (ATCC), 25 mM HEPES (Life Technologies), and 1× Pen-Strep (Life Technologies). Cells were cultured in a humidified incubator set at 37° C., 5% CO2, and trypsonized using 0.25% Trypsin with 0.5% polyvinylpyrrolidone (PVP).
For the assay, BEAS-2B cells were seeded at 7,500 cells/well (25 μL/well) in a 384-well plate and cultured overnight. Before dosing, growth media was aspirated and the wells were rinsed with HBSS Buffer (HBSS with Calcium and Magnesium, Life Technologies) supplemented with 25 mM HEPES (Life Technologies) and 1% Bovine Serum Albumin (Roche). Compounds were serially diluted in DMSO, then further diluted with supplemented HBSS Buffer (50 μL/well) to create a compound plate 3× of the final assay concentration, at 0.3% DMSO. The diluted compounds were then added to the cells (8 μL/well) and incubated at 37° C., 5% CO2 for 1 hour. After the compound incubation, TGF-β (R&D Systems) reconstituted in supplemented HBSS Buffer was added to the cells ([…], final concentration 10 ng/mL) and incubated for a further 30 minutes, after which the cells were immediately lysed with AlphaLISA lysis buffer (PerkinElmer). AlphaLISA Acceptor and Detector beads (PerkinElmer) were added 2 hours apart, then incubated overnight to be read the next day. The potency of the compound was determined through analysis of dose-dependent quantified changes in pSMAD3 signal from baseline (non-compound treated TGF-β stimulated cells). Data are expressed as pIC50 (negative decadic logarithm IC50) values.

[2] = molecular target: T1, recombinant human ALK5 (TGF-βR1) protein (Homo sapiens, UniProt P36897); test: Biochemical ALK5 (TGF-βR1) assay to measure pKi (LANCE Ultra ULight kinase assay); settings: apparent pKi from pIC50 by Cheng-Prusoff, read-out: ALK5 pKi (converted)
T1 construct: purchased Life Technologies PR9075A
T1 sequence (P36897 34-503): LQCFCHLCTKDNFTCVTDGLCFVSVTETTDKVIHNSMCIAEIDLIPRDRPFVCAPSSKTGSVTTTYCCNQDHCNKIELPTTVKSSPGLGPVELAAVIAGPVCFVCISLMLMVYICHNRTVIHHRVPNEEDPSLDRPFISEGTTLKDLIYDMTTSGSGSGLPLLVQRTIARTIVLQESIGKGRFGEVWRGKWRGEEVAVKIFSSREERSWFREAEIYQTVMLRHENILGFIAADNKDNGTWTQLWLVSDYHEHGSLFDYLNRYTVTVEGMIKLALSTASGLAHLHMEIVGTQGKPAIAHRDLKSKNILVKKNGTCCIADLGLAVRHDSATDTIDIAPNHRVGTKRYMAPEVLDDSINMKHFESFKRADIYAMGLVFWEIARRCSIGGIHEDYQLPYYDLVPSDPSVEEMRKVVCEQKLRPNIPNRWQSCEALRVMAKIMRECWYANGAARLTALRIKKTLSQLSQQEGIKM
Method: The assays were performed in a 384-well plate (24 columns×16 wells/rows). An Echo® 550 Liquid Handler (Labcyte) was used to prepare various intermediate concentrations of compounds of the present disclosure in 100% DMSO. From the intermediate concentrations, a range of concentrations (from 10 μM to 25 pM corresponding to volumes up to 105 nL) were prepared and ejected into a final assay plate to be used to create individual dose response curves for each of the subject compounds. To a separate column within the assay plate, 105 nL of DMSO in each well was used to establish a maximum assay signal.
With a multidrop dispenser, 8 μL of enzyme mixture (1.25× final) was added to each well. […] The plate was then sealed with an adhesive seal and allowed to equilibrate for 60 minutes at room temperature.
Next, 2 μL of 125 μM ATP (5× final, 125 μM ATP prepared in assay buffer with 2 mM DTT) was added to the incubated mixtures, covered with a MicroClime® Environmental Lid (Product No. LLS-0310, Labcyte) and immediately transferred to 37° C. The reactions were allowed to proceed at 37° C. for 60 minutes before terminating with the addition of 10 μL of detection antibody (LANCE® (lanthanide chelate excite) Ultra Europium-anti-phospo-DNA Topoisomerase 2-alpha (Thr1342)) in detection mixture (12 mM EDTA, 4 nM detection antibody prepared in detection buffer (50 mM Tris-HCl, 150 mM NaCl, 0.5% BSA (Fraction V), pH 7.0)) at room temperature. The plate was then read on a Perkin Elmer EnVision Plate Reader using europium specific reader settings with excitation and emission wavelengths set to 320 or 340 nm and 665 nm, respectively.
For dose-response analyses, percent inhibition versus compound concentrations were plotted, and pIC50 values were determined from a 4-parameter robust fit model with GraphPad Prism V5 Software (GraphPad Software, Inc., La Jolla, Calif.). This model obtains pIC50 values by fitting the sigmoidal dose-response (variable slope) equation to the data. Results were expressed as pIC50 (negative logarithm of IC50) and subsequently converted to pKi (negative logarithm of dissociate constant, K) using the Cheng-Prusoff equation. The higher the value of pKi (lower value of Ki), the greater the inhibition of ALK5 activity.

Row | Ki [2] | SMILES | IC50 [1]
1 | 0.0398 to 0.316 nM | Cc1cccc(-c2nc3ccccn3c2-c2ccc3ncc(N4CCCNCC4)cc3n2)n1 [Compound 646, 7-(1,4-diazepan-1-yl)-2-[2-(6-methyl-2-pyridyl)imidazo[1,2-a]pyridin-3-yl]-1,5-naphthyridine] | 25.1 to 158 nM
2 | < 0.0316 nM | Cc1cccc(-c2n[nH]cc2-c2ccc3ncc(-c4ccc(N)nc4)cc3n2)n1 [Compound 562, 5-[6-[3-(6-methyl-2-pyridyl)-1H-pyrazol-4-yl]-1,5-naphthyridin-3-yl]pyridin-2-amine] | < 20 nM
3 | 0.0398 to 0.316 nM | Cc1cccc(-c2[nH]cnc2-c2ccc3ncc(N4CC(N(C)C)C4)cc3c2)n1 [Compound 648, N,N-dimethyl-1-[6-[5-(6-methyl-2-pyridyl)-1H-imidazol-4-yl]-3-quinolyl]azetidin-3-amine] | 25.1 to 158 nM
4 | < 0.0316 nM | Cc1cccc(-c2[nH]cnc2-c2ccc3ncc(-c4csc(C(=O)O)n4)cc3c2)n1 [Compound 1152, 4-[6-[5-(6-methyl-2-pyridyl)-1H-imidazol-4-yl]-3-quinolyl]thiazole-2-carboxylic acid] | < 20 nM
5 | 0.398 to 3.16 nM | CNc1cnc2ccc(-c3c(-c4cccc(C)n4)n[nH]c3OC)nc2c1 [Compound 507, 6-[5-methoxy-3-(6-methyl-2-pyridyl)-1H-pyrazol-4-yl]-N-methyl-1,5-naphthyridin-3-amine] | 200 to 1260 nM
6 | 0.0398 to 0.316 nM | Cc1cccc(-c2n[nH]cc2-c2ccc3ncc(NCC4CCCCN4)cc3n2)n1 (stereo not drawn) [Compound 375, 6-[3-(6-methyl-2-pyridyl)-1H-pyrazol-4-yl]-N-(2-piperidylmethyl)-1,5-naphthyridin-3-amine] | 25.1 to 158 nM
7 | 0.0398 to 0.316 nM | Cc1nc(-c2n[nH]cc2-c2ccc3ncc(-c4ncn5c4NCC5)cc3n2)ccc1F [Compound 284, 7-(2,3-dihydro-1H-imidazo[1,5-a]imidazol-7-yl)-2-[3-(5-fluoro-6-methyl-2-pyridyl)-1H-pyrazol-4-yl]-1,5-naphthyridine] | 25.1 to 158 nM
8 | 0.398 to 3.16 nM | Cc1cccc(-c2c(-c3ccc4ncc(N5CCC(N(C)C)C5)cc4c3)nnn2Cc2ccccc2)n1 (stereo not drawn) [Compound 38, 1-[6-[1-benzyl-5-(6-methyl-2-pyridyl)triazol-4-yl]-3-quinolyl]-N,N-dimethyl-pyrrolidin-3-amine] | 1580 to 10000 nM
9 | 0.0398 to 0.316 nM | Cc1cccc(-c2[nH]nnc2-c2ccc3ncc(NCCN4CCN(C(C)C)CC4)cc3c2)n1 [Compound 621, N-(2-(4-isopropylpiperazin-1-yl)ethyl)-6-(5-(6-methylpyridin-2-yl)-1H-1,2,3-triazol-4-yl)quinolin-3-amine] | 25.1 to 158 nM
10 | 0.0398 to 0.316 nM | Cc1nc(-c2n[nH]cc2-c2ccc3ncc(-c4cnn([C@@H]5CCC[C@@H]5N)c4)cc3n2)ccc1F [Compound 569, (1S,2R)-2-[4-[6-[3-(5-fluoro-6-methyl-2-pyridyl)-1H-pyrazol-4-yl]-1,5-naphthyridin-3-yl]pyrazol-1-yl]cyclopentanamine] | 25.1 to 158 nM
11 | 0.0398 to 0.316 nM | Cc1cccc(-c2[nH]cnc2-c2ccc3ncc(-c4cccc(C(=O)OC5CNC5)n4)cc3c2)n1 [Compound 1128, azetidin-3-yl 6-[6-[5-(6-methyl-2-pyridyl)-1H-imidazol-4-yl]-3-quinolyl]pyridine-2-carboxylate] | 25.1 to 158 nM
12 | 0.0398 to 0.316 nM | Cc1cccc(-c2[nH]cnc2-c2ccc3ncc(-c4ncc(C(=O)O[C@@H]5CCNC5)cn4)cc3c2)n1 [Compound 1079, [(3R)-pyrrolidin-3-yl] 2-[6-[5-(6-methyl-2-pyridyl)-1H-imidazol-4-yl]-3-quinolyl]pyrimidine-5-carboxylate] | 25.1 to 158 nM
13 | 0.0398 to 0.316 nM | Cc1cccc(-c2[nH]cnc2-c2ccc3ncc(NC(=O)C4CCNC4)cc3c2)n1 (stereo not drawn) [Compound 618, N-[6-[5-(6-methyl-2-pyridyl)-1H-imidazol-4-yl]-3-quinolyl]pyrrolidine-3-carboxamide] | 200 to 1260 nM
14 | 0.0398 to 0.316 nM | Cc1cccc(-c2nnn(Cc3ccccc3)c2-c2ccc3ncc(-c4cn[nH]c4)cc3c2)n1 [Compound 254, 6-[3-benzyl-5-(6-methyl-2-pyridyl)triazol-4-yl]-3-(1H-pyrazol-4-yl)quinoline] | 25.1 to 158 nM
15 | 0.0398 to 0.316 nM | Cc1cccc(-c2nnn(Cc3ccccc3)c2-c2ccc3ncc(N4CCCNCC4)cc3c2)n1 [Compound 411, 6-[3-benzyl-5-(6-methyl-2-pyridyl)triazol-4-yl]-3-(1,4-diazepan-1-yl)quinoline] | 25.1 to 158 nM
16 | 0.0398 to 0.316 nM | Cc1cccc(-c2[nH]cnc2-c2ccc3ncc(N4CCN[C@@H](C(=O)O)C4)cc3c2)n1 [Compound 168, (2R)-4-[6-[5-(6-methyl-2-pyridyl)-1H-imidazol-4-yl]-3-quinolyl]piperazine-2-carboxylic acid] | 1580 to 10000 nM
17 | 0.0398 to 0.316 nM | COC(=O)CC1CN(c2cnc3ccc(-c4nc[nH]c4-c4cccc(C)n4)cc3c2)CCN1 (stereo not drawn) [Compound 60, methyl 2-(4-(6-(5-(6-methylpyridin-2-yl)-1H-imidazol-4-yl)quinolin-3-yl)piperazin-2-yl)acetate] | 25.1 to 158 nM
18 | 0.0398 to 0.316 nM | Cc1cccc(-c2[nH]cnc2-c2ccc3ncc(C(=O)OC[C@H]4CC[C@@H](N)CC4)cc3c2)n1 [Compound 770, (4-aminocyclohexyl)methyl 6-[5-(6-methyl-2-pyridyl)-1H-imidazol-4-yl]quinoline-3-carboxylate] | 25.1 to 158 nM
19 | 0.0398 to 0.316 nM | COC(=O)[C@H]1CCCCN1CCNc1cnc2ccc(-c3nc[nH]c3-c3cccc(C)n3)cc2c1 [Compound 706, methyl (2R)-1-[2-[[6-[5-(6-methyl-2-pyridyl)-1H-imidazol-4-yl]-3-quinolyl]amino]ethyl]piperidine-2-carboxylate] | 25.1 to 158 nM
20 | < 0.0316 nM | Cc1cccc(-c2n[nH]cc2-c2ccc3ncc(-c4cnn5c4NCCC5)cc3n2)n1 [Compound 525, 2-[3-(6-methyl-2-pyridyl)-1H-pyrazol-4-yl]-7-(4,5,6,7-tetrahydropyrazolo[1,5-a]pyrimidin-3-yl)-1,5-naphthyridine] | < 20 nM

Row | SMILES | Ki [2] | IC50 [1]
21 | CCN1CCC(N(C)c2cnc3ccc(-c4c[nH]nc4-c4cccc(C)n4)nc3c2)CC1 [Compound 662, N-(1-ethyl-4-piperidyl)-N-methyl-6-[3-(6-methyl-2-pyridyl)-1H-pyrazol-4-yl]-1,5-naphthyridin-3-amine] | 0.0398 to 0.316 nM | 25.1 to 158 nM
